Drawing on patent publication US8952177B2 (Janssen Pharmaceutica NV, priority 2013, dated 2015), this text covers Ki and IC50 for 25 compounds.

The structures appear in SMILES notation. Counter-ions that a name gives are not always drawn. Like-named read-outs stand apart in the source and are kept apart here.

One assay deals with human FLAP (Homo sapiens (Human), UniProt P20292). The assay is described as follows: FLAP binding assay (HTRF format). The following applies: read-out: FLAP Binding wild type HTRF Ki. In a few lines: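 His6-tagged human FLAP in Sf-9 membranes competed against a FITC-labelled indole FLAP modulator in HTRF format; 2 h reaction, read as HTRF ratio. Ki and IC50 from averaged duplicate ratios over 2–20 runs of two plates each; parenthetical numbers give run count.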

Assay [1] relates to leukotriene pathway in human whole blood (LTB4). The assay is described as follows: Human whole blood assay (LTB4 after calcium ionophore A23187 stimulation). It is filed as cell-based. The note with it: human whole blood diluted 1:1 in RPMI, 15 min pre-incubation, A23187 7 μg/mL for 30 min at 37° Celsius. Put shortly:
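Heparinised human whole blood, diluted 1:1 in RPMI, was preincubated with compound for 15 min at 37° C. before stimulation with A23187 (7 μg/mL) for 30 min. Plasma LTB4 was measured by immunoassay kit and IC50 obtained by 4-parameter fit; single replicate per plate, blood from at least one donor.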

[2] abbreviates: human FLAP-containing Sf-9 membranes, 25 nM HTRF ligand, 2 h, average of runs.

Sequence of human FLAP (P20292 whole entry): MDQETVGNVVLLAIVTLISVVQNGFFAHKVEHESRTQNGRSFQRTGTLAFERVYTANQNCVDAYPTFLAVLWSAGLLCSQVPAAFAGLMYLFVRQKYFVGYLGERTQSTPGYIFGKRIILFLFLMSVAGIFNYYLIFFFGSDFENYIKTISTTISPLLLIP

Take `CCC(CC)(Cc1nc2ccc(OCc3ccc(C)cn3)cc2n1Cc1cccc(Br)c1)C(=O)O` [Example 14, 2-({1-(3-Bromobenzyl)-6-[(5-methylpyridin-2-yl)methoxy]-1H-benzimidazol-2-yl}methyl)-2-ethylbutanoic acid]: the Ki (commonly the equilibrium dissociation constant of an inhibitor or competing ligand from its target) at human FLAP (setting [2]) came to 0.056 µM. Also, the IC50 – broadly, the concentration at which inhibition is half-maximal – in assay [1] (Homo sapiens) is greater than 10 µM.
On to `CCC(CC)(Cc1nc2ccc(OCc3ccc(C)cn3)cc2n1Cc1ccc(OC(F)(F)F)cc1)C(=O)O` [Example 22, 2-Ethyl-2-({6-[(5-methylpyridin-2-yl)methoxy]-1-[4-(trifluoromethoxy)benzyl]-1H-benzimidazol-2-yl}methyl)butanoic acid], for which, at human FLAP (setting [2]), the Ki came out at 0.024 µM. Besides, the IC50 in assay [1] (Homo sapiens) was found to be 1.66 µM.
The corresponding values for `CCC(CC)(Cc1nc2ccc(OCc3ccc(C)cn3)cc2n1Cc1ccc(OC(F)(F)F)cc1F)C(=O)O` [Example 23, 2-Ethyl-2-({1-[2-fluoro-4-(trifluoromethoxy)benzyl]-6-[(5-methylpyridin-2-yl)methoxy]-1H-benzimidazol-2-yl}methyl)butanoic acid] are 0.018 µM and 0.91 µM.
For `CCC(CC)(Cc1nc2ccc(OCc3ccc(C)cn3)cc2n1Cc1ccc(OC(F)(F)F)c(Cl)c1)C(=O)O` [Example 24, 2-({1-[3-Chloro-4-(trifluoromethoxy)benzyl]-6-[(5-methylpyridin-2-yl)methoxy]-1H-benzimidazol-2-yl}methyl)-2-ethylbutanoic acid] the same measures were 0.011 µM and greater than 10 µM.
For `CCC(CC)(Cc1nc2ccc(OCc3ccn(C)n3)cc2n1Cc1ccc(OC(F)(F)F)cc1F)C(=O)O` [Example 56, 2-Ethyl-2-({1-[2-fluoro-4-(trifluoromethoxy)benzyl]-6-[(1-methyl-1H-pyrazol-3-yl)methoxy]-1H-benzimidazol-2-yl}methyl)butanoic acid] the same measures were 0.046 µM and roughly 2 µM.
Take `Cc1ccc(COc2cc(F)c3nc(CC4(C(=O)O)CCCC4)n(Cc4ccc(Br)cc4)c3c2)nc1` [Example 61, 1-({1-(4-Bromobenzyl)-4-fluoro-6-[(5-methylpyridin-2-yl)methoxy]-1H-benzimidazol-2-yl}methyl)cyclopentanecarboxylic acid]: on human FLAP (setting [2]), the Ki was 0.006 µM. Moreover, in assay [1] (Homo sapiens), the IC50 came out at 2.28 µM.
For `CCC(CC)(Cc1nc2c(F)cc(OCc3ccc(C)cn3)cc2n1Cc1ccc(Br)cc1)C(=O)O` [Example 65, 2-({1-(4-Bromobenzyl)-4-fluoro-6-[(5-methylpyridin-2-yl)methoxy]-1H-benzimidazol-2-yl}methyl)-2-ethylbutanoic acid as the TFA salt], the Ki on human FLAP (setting [2]) turned out to be 0.006 µM. Besides, the IC50 in assay [1] (Homo sapiens) stood at 1.12 µM.
For `CCC(CC)(Cc1nc2c(F)cc(OCc3ccc(C)cn3)cc2n1Cc1ccc(C)cc1)C(=O)O` [Example 71, 2-Ethyl-2-({4-fluoro-1-(4-methylbenzyl)-6-[(5-methylpyridin-2-yl)methoxy]-1H-benzimidazol-2-yl}methyl)butanoic acid as the TFA salt] the same measures were 0.049 µM and 3.35 µM.
Take `Cc1ccc(COc2cc(F)c3nc(CC4(C(=O)O)CCCC4)n(Cc4ccc(OC(F)(F)F)cc4)c3c2)nc1` [Example 72, 1-({4-Fluoro-6-[(5-methylpyridin-2-yl)methoxy]-1-[4-(trifluoromethoxy)benzyl]-1H-benzimidazol-2-yl}methyl)cyclopentanecarboxylic acid as the TFA salt]: the Ki on human FLAP was 0.06 µM. For the same compound, the IC50 in assay [1] worked out at 1.93 µM.
On to `Cc1ccc(Cn2c(CC3(C(=O)O)CCCC3)nc3c(F)cc(OCc4ccc(C)cn4)cc32)cc1` [Example 73, 1-({4-Fluoro-1-(4-methylbenzyl)-6-[(5-methylpyridin-2-yl)methoxy]-1H-benzimidazol-2-yl}methyl)cyclopentanecarboxylic acid as the TFA salt], for which the Ki on human FLAP (setting [2]) turned out to be 0.052 µM. Also, the IC50 in assay [1] (Homo sapiens) came out at 3.25 µM.
`Cc1ccc(COc2cc(Cl)c3nc(CC4(C(=O)O)CCCC4)n(Cc4ccc(Br)cc4)c3c2)nc1` [Example 78, 1-({1-(4-Bromobenzyl)-4-chloro-6-[(5-methylpyridin-2-yl)methoxy]-1H-benzimidazol-2-yl}methyl)cyclopentanecarboxylic acid]: at human FLAP (setting [2]), the Ki stood at 0.024 µM. In addition, the IC50 in assay [1] (Homo sapiens) amounted to 14.1 µM.
For `Cc1ccc(COc2cc(Cl)c3nc(CC(C)(C)C(=O)O)n(Cc4ccc(Br)cc4)c3c2)nc1` [Example 79, 3-{1-(4-Bromobenzyl)-4-chloro-6-[(5-methylpyridin-2-yl)methoxy]-1H-benzimidazol-2-yl}-2,2-dimethylpropanoic acid] the same measures were 0.085 µM and roughly 20 µM.
For `CCC(CC)(Cc1nc2ccc(OCc3ccn(C)n3)cc2n1Cc1ccc(OC(F)(F)F)cc1C)C(=O)O` [Example 92] the same measures were roughly 0.25 µM and 1.44 µM.
For `CCC(CC)(Cc1nc2ccc(OCc3ccc(C)cn3)cc2n1Cc1ccc(OC(F)(F)F)cc1C)C(=O)O` [Example 105] the same measures were 0.04 µM and 6.25 µM.
In the case of `Cc1ccc(Cn2c(CC(C)(C)C(=O)O)nc3ccc(OCc4ncc(C)cc4F)cc32)c(F)c1` [Example 127, 3-{1-(2-Fluoro-4-methylbenzyl)-6-[(3-fluoro-5-methylpyridin-2-yl)methoxy]-1H-benzimidazol-2-yl}-2,2-dimethylpropanoic acid], the Ki at human FLAP (setting [2]) came out at 0.16 µM. For the same compound, the IC50 in assay [1] (Homo sapiens) was 2.12 µM.
The corresponding values for `Cc1cnc(COc2ccc3nc(CC(C)(C)C(=O)O)n(Cc4ccc(Br)cc4)c3c2)c(F)c1` [Example 128, 3-{1-(4-Bromobenzyl)-6-[(3-fluoro-5-methylpyridin-2-yl)methoxy]-1H-benzimidazol-2-yl}-2,2-dimethylpropanoic acid] are 0.0085 µM and 1.32 µM.
Regarding `Cc1cnc(COc2ccc3nc(CC(C)(C)C(=O)O)n(Cc4c(F)cc(Br)cc4F)c3c2)c(F)c1` [Example 130, 3-{1-(4-Bromo-2,6-difluorobenzyl)-6-[(3-fluoro-5-methylpyridin-2-yl)methoxy]-1H-benzimidazol-2-yl}-2,2-dimethylpropanoic acid], the Ki at human FLAP (setting [2]) stood at 0.015 µM. In assay [1] (Homo sapiens), the IC50 turned out to be 0.84 µM.
The corresponding values for `Cc1cnc(COc2ccc3nc(CC(C)(C)C(=O)O)n(Cc4ccc(OC(F)(F)F)cc4F)c3c2)c(F)c1` [Example 131, 3-{6-[(3-Fluoro-5-methylpyridin-2-yl)methoxy]-1-[2-fluoro-4-(trifluoromethoxy)benzyl]-1H-benzimidazol-2-yl}-2,2-dimethylpropanoic acid] are 0.024 µM and 3.93 µM.
For the compound `CCC(CC)(Cc1nc2ccc(OCc3ncc(C)cc3F)cc2n1Cc1ccc(Br)cc1)C(=O)O` [Example 136, 2-({1-(4-Bromobenzyl)-6-[(3-fluoro-5-methylpyridin-2-yl)methoxy]-1H-benzimidazol-2-yl}methyl)-2-ethylbutanoic acid], the Ki on human FLAP (setting [2]) was found to be 0.00064 µM. Further, in assay [1] (Homo sapiens), the IC50 came out at 0.48 µM.
The corresponding values for `Cc1cnc(COc2ccc3nc(CC(C)(C)C(=O)O)n(Cc4ccc(-c5ccc(C(F)(F)F)cc5)cc4F)c3c2)c(F)c1` [Example 141, 3-(6-[(3-Fluoro-5-methylpyridin-2-yl)methoxy]-1-{[3-fluoro-4′-(trifluoromethyl)biphenyl-4-yl]methyl}-1H-benzimidazol-2-yl)-2,2-dimethylpropanoic acid] are 0.0051 µM and 0.76 µM.
The corresponding values for `Cc1cnc(COc2ccc3nc(CC(C)(C)C(=O)O)n(Cc4ccc(-c5ccc(C(F)(F)F)cc5)cc4)c3c2)c(F)c1` [Example 142, 3-(6-[(3-Fluoro-5-methylpyridin-2-yl)methoxy]-1-{[4′-(trifluoromethyl)biphenyl-4-yl]methyl}-1H-benzimidazol-2-yl)-2,2-dimethylpropanoic acid] are 0.0074 µM and 0.98 µM.
The corresponding values for `Cc1cnc(COc2ccc3nc(CC(C)(C)C(=O)O)n(Cc4cccc(-c5ccc(C(F)(F)F)cc5)c4)c3c2)c(F)c1` [Example 143, 3-(6-[(3-Fluoro-5-methylpyridin-2-yl)methoxy]-1-{[4′-(trifluoromethyl)biphenyl-3-yl]methyl}-1H-benzimidazol-2-yl)-2,2-dimethylpropanoic acid] are 0.013 µM and 1.82 µM.
In the case of `CCC(CC)(Cc1nc2ccc(OCc3ccc(C)cn3)cc2n1Cc1cccc(-c2ccc(C(F)(F)F)cc2)c1)C(=O)O` [Example 149, 2-ethyl-2-((6-((5-methylpyridin-2-yl)methoxy)-1-((4′-(trifluoromethyl)-[1,1′-biphenyl]-3-yl)methyl)-1H-benzo[d]imidazol-2-yl)methyl)butanoic acid], on human FLAP (setting [2]), the Ki was determined as 0.036 µM. Besides, in assay [1] (Homo sapiens), the IC50 turned out to be 3.88 µM.
For `CCC(CC)(Cc1nc2ccc(OCc3ncc(C)cc3F)cc2n1Cc1ccc(N2CCC(C)CC2)cc1)C(=O)O` [Example 180, 2-Ethyl-2-({6-[(3-fluoro-5-methylpyridin-2-yl)methoxy]-1-[4-(4-methylpiperidin-1-yl)benzyl]-1H-benzimidazol-2-yl}methyl)butanoic acid] the same measures were 0.003 µM and 0.56 µM.
Regarding `CCC(CC)(Cc1nc2ccc(OCc3ncc(C)cc3F)cc2n1Cc1ccc(N2CCC(C)CC2)cc1F)C(=O)O` [Example 181, 2-Ethyl-2-({1-[2-fluoro-4-(4-methylpiperidin-1-yl)benzyl]-6-[(3-fluoro-5-methylpyridin-2-yl)methoxy]-1H-benzimidazol-2-yl}methyl)butanoic acid], at human FLAP (setting [2]), the inhibition constant Ki is 0.0052 µM. Also, the half-inhibitory concentration (IC50) in assay [1] (Homo sapiens) stood at 0.048 µM.
